± gives the expanded uncertainty stated by the source.
Assay: xn = mol fraction of the nth substance listed
Conditions: 101 kPa, Liquid; for mass density: Vibrating tube method; for viscosity: Vibrating wire viscometry; for speed of sound: ultrasonic interferometer

C[NH+](C)C.O=S(=O)([O-])O [trimethylammonium hydrogen sulfate] + CN1CCCC1=O
Conditions	mass density [kg/m3]	speed of sound [m/s]	viscosity [mPa·s]
298.15 K, x1 = 0.0183	1041.67 ± 0.81	1572 ± 20	2.72 ± 0.18
298.15 K, x1 = 0.0369	1053.11 ± 0.67	1573 ± 20	3.99 ± 0.25
298.15 K, x1 = 0.0964	1086.47 ± 0.64	1576 ± 20	6.59 ± 0.4
298.15 K, x1 = 0.138	1103.99 ± 0.57	1578 ± 20	8.37 ± 0.51
298.15 K, x1 = 0.2014	1128.96 ± 0.54	1580 ± 20	10.5 ± 0.6
298.15 K, x1 = 0.3115	1160.07 ± 0.54	1584 ± 20	12.1 ± 0.7
298.15 K, x1 = 0.3587	1170.49 ± 0.54	1586 ± 20	12.2 ± 0.7
298.15 K, x1 = 0.4311	1187.05 ± 0.55	1588 ± 20	11.9 ± 0.7
298.15 K, x1 = 0.5579	1214.39 ± 0.61	1590 ± 20	10.3 ± 0.6
298.15 K, x1 = 0.6955	1257.13 ± 0.71	1591 ± 20	8.34 ± 0.5
298.15 K, x1 = 0.775	1295.34 ± 0.83	1584 ± 20	7.25 ± 0.44
298.15 K, x1 = 0.843	1334.58 ± 0.96	1581 ± 20	6.05 ± 0.37
298.15 K, x1 = 0.9375	1403.82 ± 1.1	1573 ± 20	5.39 ± 0.33
298.15 K, x1 = 0.97	1439.41 ± 1.3	1566 ± 20	5.24 ± 0.32
298.15 K, x1 = 1	1467.58 ± 0.83	1564 ± 20	5.1 ± 0.31
303.15 K, x1 = 0.0183	1037.3 ± 0.74	1552 ± 20	2.02 ± 0.13
303.15 K, x1 = 0.0369	1048.09 ± 0.65	1553 ± 20	2.9 ± 0.18
303.15 K, x1 = 0.0964	1080.22 ± 0.63	1556 ± 20	5.22 ± 0.32
303.15 K, x1 = 0.138	1098.35 ± 0.57	1558 ± 20	6.83 ± 0.41
303.15 K, x1 = 0.2014	1122.72 ± 0.54	1562 ± 20	8.56 ± 0.52
303.15 K, x1 = 0.3115	1154.59 ± 0.53	1568 ± 20	9.88 ± 0.6
303.15 K, x1 = 0.3587	1161.24 ± 0.51	1571 ± 20	9.93 ± 0.6
303.15 K, x1 = 0.4311	1177.45 ± 0.54	1573 ± 20	9.66 ± 0.58
303.15 K, x1 = 0.5579	1204.95 ± 0.59	1577 ± 20	8.28 ± 0.5
303.15 K, x1 = 0.6955	1247.15 ± 0.67	1575 ± 20	6.8 ± 0.41
303.15 K, x1 = 0.775	1283.75 ± 0.8	1572 ± 20	6.01 ± 0.36
303.15 K, x1 = 0.843	1321.99 ± 0.93	1571 ± 20	5.07 ± 0.31
303.15 K, x1 = 0.9375	1389.78 ± 1.1	1567 ± 20	4.66 ± 0.28
303.15 K, x1 = 0.97	1426.11 ± 1.4	1563 ± 20	4.59 ± 0.28
303.15 K, x1 = 1	1463.56 ± 0.82	1560 ± 20	4.48 ± 0.27
308.15 K, x1 = 0.0183	1029.88 ± 0.68	1529 ± 20	1.91 ± 0.12
308.15 K, x1 = 0.0369	1041.19 ± 0.65	1530 ± 20	2.48 ± 0.15
308.15 K, x1 = 0.0964	1073.31 ± 0.63	1534 ± 20	4.55 ± 0.28
308.15 K, x1 = 0.138	1091.47 ± 0.56	1536 ± 20	5.68 ± 0.34
308.15 K, x1 = 0.2014	1115.24 ± 0.53	1539 ± 20	7.18 ± 0.43
308.15 K, x1 = 0.3115	1146.54 ± 0.53	1545 ± 20	8.38 ± 0.51
308.15 K, x1 = 0.3587	1155.39 ± 0.51	1549 ± 20	8.48 ± 0.51
308.15 K, x1 = 0.4311	1170.29 ± 0.53	1553 ± 20	8.26 ± 0.5
308.15 K, x1 = 0.5579	1196.63 ± 0.58	1560 ± 20	7.19 ± 0.43
308.15 K, x1 = 0.6955	1239.34 ± 0.66	1561 ± 20	5.89 ± 0.36
308.15 K, x1 = 0.775	1273.99 ± 0.79	1560 ± 20	5.25 ± 0.32
308.15 K, x1 = 0.843	1315.25 ± 0.95	1559 ± 20	4.4 ± 0.27
308.15 K, x1 = 0.9375	1383.15 ± 1.1	1558 ± 20	4.28 ± 0.26
308.15 K, x1 = 0.97	1417.02 ± 1.5	1557 ± 20	4.01 ± 0.24
308.15 K, x1 = 1	1463.5 ± 0.82	1556 ± 20	3.94 ± 0.24
313.15 K, x1 = 0.0183	1024.27 ± 0.64	1521 ± 20	1.45 ± 0.09
313.15 K, x1 = 0.0369	1035.08 ± 0.64	1523 ± 20	1.76 ± 0.11
313.15 K, x1 = 0.0964	1066.52 ± 0.62	1526 ± 20	3.52 ± 0.21
313.15 K, x1 = 0.138	1083.97 ± 0.56	1528 ± 20	4.79 ± 0.29
313.15 K, x1 = 0.2014	1107.81 ± 0.52	1530 ± 20	6.19 ± 0.37
313.15 K, x1 = 0.3115	1135.87 ± 0.52	1539 ± 20	7.09 ± 0.43
313.15 K, x1 = 0.3587	1145.43 ± 0.5	1541 ± 20	7.14 ± 0.43
313.15 K, x1 = 0.4311	1157.43 ± 0.52	1545 ± 20	6.99 ± 0.42
313.15 K, x1 = 0.5579	1185.37 ± 0.56	1550 ± 20	6.15 ± 0.37
313.15 K, x1 = 0.6955	1225.55 ± 0.65	1551 ± 20	4.7 ± 0.28
313.15 K, x1 = 0.775	1260.83 ± 0.76	1550 ± 20	3.99 ± 0.24
313.15 K, x1 = 0.843	1295.67 ± 0.93	1553 ± 20	3.52 ± 0.21
313.15 K, x1 = 0.9375	1369.46 ± 1.1	1552 ± 20	3.35 ± 0.2
313.15 K, x1 = 0.97	1404.25 ± 1.6	1552 ± 20	3.23 ± 0.2
313.15 K, x1 = 1	1455.63 ± 0.82	1552 ± 20	3.16 ± 0.19
